Experimental findings from patent US4229533A, “Method for producing antibiotic C-15003 P-4” (priority 1977, dated 1980) are described below.

Series [1] deals with Cryptococcus neoformans. The experiment in a line: Activity against microorganisms. The format is cell-based.
Series [2] in a line: Solubility. The format is physicochemical.
In series [3] the test system is P388 leukemia. The experiment in a line: Antitumour activity upon P388 leukemia in mice. The format is in vivo, mouse. The following applies: 1×10^6 cells/animal i.p., 0.00625 mg/kg/day intraperitoneally for 9 consecutive days. The source says: The therapeutic effects of P-4 (dosed intraperitoneally for 9 consecutive days) upon P388 leukemia in mice (1×10^6 cells/animal, mouse, intraperitoneally transplanted) was investigated.

Series [4] deals with Fusicladium levieri. The experiment in a line: Activity against microorganisms. The format is cell-based.
Series [5] concerns Trichophyton rubrum. Briefly: Activity against microorganisms. The format is cell-based.
The subject of series [6] is Sclerotinia screrotiorum. The experiment in a line: Activity against microorganisms. The format is cell-based.
Series [7] has as its system Klebsiella pneumoniae. Briefly: Antimicrobial activity by the paper disc method. The format is cell-based. Particulars: 8 mm, 0.02 ml of a 300 μg/ml solution, trypticase-soy agar. The method, then: (§1) With trypticase-soy agar (BBL) as an assay medium, the inhibitory concentrations against the microorganisms described below were investigated by the paper disc method. Thus, filter-paper discs (Toyo Seisakusho, thin-type, 8 mm in dia.) each impregnated with 0.02 ml of a 300 μg/ml solution of P-4 were placed on agar plates respectively inoculated with the microorganisms described below. P-4 had no activity against the following bacteria. Escherichia coli, Proteus vulgaris, Proteus mirabilis, Pseudomonas aeruginosa, Staphylococcus aureus, Bacillus subtilis, Bacillus cereus, Klebsiella pneumoniae, Serratia marcescens and Mycobacterium avium

Series [8] deals with Proteus mirabilis. The experiment in a line: Antimicrobial activity by the paper disc method. The following applies: 8 mm, 0.02 ml of a 300 μg/ml solution, trypticase-soy agar. The format is cell-based. The method, then: as §1
Series [9] has as its system Bacillus cereus. The experiment in a line: Antimicrobial activity by the paper disc method. The format is cell-based. Particulars: 8 mm, 0.02 ml of a 300 μg/ml solution, trypticase-soy agar. The protocol:
as §1

Series [10] concerns Mycobacterium avium. The experiment in a line: Antimicrobial activity by the paper disc method. The format is cell-based. The following applies: 8 mm, 0.02 ml of a 300 μg/ml solution, trypticase-soy agar. The protocol: as §1
Series [11] deals with Pseudomonas aeruginosa. Briefly: Antimicrobial activity by the paper disc method. Particulars: 8 mm, 0.02 ml of a 300 μg/ml solution, trypticase-soy agar. The format is cell-based. The protocol:
as §1

Series [12] concerns Bacillus subtilis. Briefly: Antimicrobial activity by the paper disc method. Particulars: 8 mm, 0.02 ml of a 300 μg/ml solution, trypticase-soy agar. The format is cell-based. The protocol: as §1
Series [13] relates to Serratia marcescens. Briefly: Antimicrobial activity by the paper disc method. It is filed as cell-based. Particulars: 8 mm, 0.02 ml of a 300 μg/ml solution, trypticase-soy agar. The method, then: as §1
Series [14] concerns Proteus vulgaris. Briefly: Antimicrobial activity by the paper disc method. It is filed as cell-based. Particulars: 8 mm, 0.02 ml of a 300 μg/ml solution, trypticase-soy agar. The method, then:
as §1

The test system of series [15] is Escherichia coli. The experiment in a line: Antimicrobial activity by the paper disc method. The format is cell-based. Particulars: 8 mm, 0.02 ml of a 300 μg/ml solution, trypticase-soy agar. The method, then:
as §1

Series [16] deals with Staphylococcus aureus. Briefly: Antimicrobial activity by the paper disc method. It is filed as cell-based. Particulars: 8 mm, 0.02 ml of a 300 μg/ml solution, trypticase-soy agar. The method, then: as §1
Series [17] in a line: Preliminary acute toxicity test with mice. Particulars: mouse, in vivo, ip, intraperitoneal. The text has this: In a preliminary acute toxicity test with mice as test animals, which involved intraperitoneal injections of P-4.
Series [18] deals with Rhodotorula ruba. The experiment in a line: Activity against microorganisms. The format is cell-based.
The test system of series [19] is Helminthosporium sigmoidium var. irregulare. Briefly: Activity against microorganisms. It is filed as cell-based.
Series [20] has as its system Cochlioborus miyabeanus. The experiment in a line: Activity against microorganisms. It is filed as cell-based.
For series [21], the system named is Pyricularia oryzae. It is filed as cell-based.
Series [22] deals with Pellicularia sasakii. The experiment in a line: Activity against microorganisms. The format is cell-based.

By LD50 is commonly meant the dose at which mortality reaches 50%. A low value points to a more toxic substance. With `COc1cc2cc(c1Cl)N(C)C(=O)CC(OC(=O)CC(C)C)C1(C)OC1C(C)C1CC(O)(NC(=O)O1)C(OC)C=CC=C(C)C2` (stereo not drawn) [P-4], the “activity against Cryptococcus neoformans” value in series [1] is reported as “had the activity”. Also, the Solubility result in [2] (in benzene, ether) is recorded as “Sparingly soluble”; in series [2] (in chloroform, ethyl acetate, acetone, ethanol, methanol, pyridine, tetrahydrofuran, dimethylsulfoxide) it was “Soluble”; in series [2] (in petr. ether, hexane, water) it was “Insoluble”. Also, the life-span-extending ratio in series [3] was found to be 180%. Also, the “activity against Fusicladium levieri” value in [4] was “had the activity”. Further, the “activity against Trichophyton rubrum” value in [5] is “had the activity”. Moreover, the “activity against Sclerotinia screrotiorum” value in series [6] is “had the activity”. For the same molecule, the “activity against Klebsiella pneumoniae” value in series [7] was “no activity”. Besides, the “activity against Proteus mirabilis” value in series [8] is “no activity”. Also, in [9], the “activity against Bacillus cereus” value is given as “no activity”. Besides, the “activity against Mycobacterium avium” value in series [10] is listed as “no activity”. The “activity against Pseudomonas aeruginosa” value in [11] is reported as “no activity”. In series [12], the “activity against Bacillus subtilis” value is “no activity”. Moreover, in series [13], the “activity against Serratia marcescens” value is “no activity”. Besides, in series [14], the “activity against Proteus vulgaris” value was “no activity”. In addition, the “activity against Escherichia coli” value in series [15] is recorded as “no activity”. Moreover, the “activity against Staphylococcus aureus” value in series [16] is “no activity”. In [17], the median lethal dose (LD50) was greater than 0.313 mg/kg. Further, in series [18], the “activity against Rhodotorula ruba” value is given as “had the activity”. Besides, the “activity against Helminthosporium sigmoidium var. irregulare” value in series [19] was “had the activity”. Besides, the “activity against Cochlioborus miyabeanus” value in series [20] is listed as “had the activity”. Also, in series [21], the “activity against Pyricularia oryzae” value is given as “had the activity”. Also, the “activity against Pellicularia sasakii” value in [22] is reported as “had the activity”.
